# From ChEMBL document CHEMBL5579883, “Discovery of Novel Neo-Clerodane Derivatives as Potent Dual-Functional Antiosteoporosis Agents through Targeting Peroxisome Proliferator-Activated Receptor-γ” (J Med Chem, 2024)
# How the values were obtained:
# BMDM [1] = assay: Inhibition of osteoclastogenesis in C57BL/6J mouse Bone marrow macrophage cells assessed as inhibition of RANKL-stimulated osteoclast formation measured after 6 days by tartrate-resistant acid phosphatase (TRAP) staining assay; details: 144 h
# [2] = biological target: T1, Peroxisome proliferator-activated receptor gamma (Homo sapiens, UniProt P37231); assay: Antagonist activity at PPAR gamma LBD (203 to 476 residues) (unknown origin) expressed in HEK293T cells co-transfected with pCMV-GAL4-PPARgamma-LBD-SV40-Renilla-luciferase assessed as reduction of rosiglitazone induced PPAR-gamma activation incubated for 24 hrs by dural-luciferase reporter assay; format: cell-based
# T1 sequence (P37231 whole entry): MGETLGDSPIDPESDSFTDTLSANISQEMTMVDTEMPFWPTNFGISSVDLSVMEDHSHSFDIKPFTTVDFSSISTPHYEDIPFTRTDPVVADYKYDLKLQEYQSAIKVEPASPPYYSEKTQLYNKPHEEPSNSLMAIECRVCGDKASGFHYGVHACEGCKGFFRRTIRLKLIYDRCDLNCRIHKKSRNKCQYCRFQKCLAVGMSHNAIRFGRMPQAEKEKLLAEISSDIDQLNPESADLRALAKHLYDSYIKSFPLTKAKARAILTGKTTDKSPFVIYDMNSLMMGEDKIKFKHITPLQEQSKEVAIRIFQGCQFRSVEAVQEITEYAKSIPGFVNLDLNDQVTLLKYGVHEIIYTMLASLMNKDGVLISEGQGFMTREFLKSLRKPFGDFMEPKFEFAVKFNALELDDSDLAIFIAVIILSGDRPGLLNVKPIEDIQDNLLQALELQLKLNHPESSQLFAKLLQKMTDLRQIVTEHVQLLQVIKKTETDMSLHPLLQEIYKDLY
# BMDM [3] = assay: Cytotoxicity against mouse Bone marrow macrophage at 10 uM measured after 72 hrs by MTT assay; format: toxicity, cell-based
# BMDM [4] = assay: cells; details: Mus musculus, 144 h, read-out: INH
# Description: Inhibition of osteoclastogenesis in C57BL/6J mouse Bone marrow macrophage cells assessed as inhibition of RANKL-stimulated osteoclast formation at 10 uM measured after 6 days by tartrate-resistant acid phosphatase (TRAP) staining assay relative to control
SMILES,IC50 (BMDM [1]),IC50 [2],Activity (BMDM [3]),inhibition at 10 µM (BMDM [4])
C/C=C(\C)C(=O)OC[C@@]12C(=O)C[C@@H](C)[C@](C)(CCC3=CC(=O)OC3)[C@H]1CCC[C@]21CO1,0.83 µM,2.05 µM,Non-Toxic,–
COC(=O)[C@@H]1CCC[C@@H]2[C@@](C)(C[C@@H]3OC(=O)C=C3CO)[C@H](C)C[C@H](O)[C@]21C,–,–,Non-Toxic,–
CC(=O)OC[C@@]12[C@@H](OC(C)=O)C[C@@H](C)[C@](C)(C[C@H](OC(C)=O)C3=CC(=O)OC3)[C@H]1[C@H](OC(C)=O)CC[C@]21CO1 [AJUGAPANTIN A],–,–,Non-Toxic,–
COC(=O)[C@@H]1CC[C@@H](O)[C@@H]2[C@@](C)(C[C@H](O)C3=CC(=O)OC3)[C@H](C)C[C@H](O)[C@]21C,–,–,Non-Toxic,–
CC(=O)O[C@H]1C[C@@H](C)[C@](C)(CCC2=CC(=O)OC2)[C@H]2CCCC(=O)[C@]12CO,> 10 µM,> 20 µM,Non-Toxic,–
C/C=C(\C)C(=O)O[C@@H]1CC[C@]2(CO2)[C@]2(COC(C)=O)[C@@H](OC(C)=O)C[C@@H](C)[C@](C)(C[C@H](OC(C)=O)C3=CC(=O)OC3)[C@@H]12 [AJUGAMARIN A2],–,–,Non-Toxic,–
C/C=C(\C)C(=O)OC[C@@]12[C@@H](OC(C)=O)C[C@@H](C)[C@](C)(CCC3=CC(=O)OC3)[C@H]1CCC[C@H]2C(=O)O,–,–,Non-Toxic,–
CC(=O)OC[C@@]12[C@@H](OC(C)=O)C[C@@H](C)[C@](C)(C[C@H](OC(C)=O)C3=CC(=O)OC3)[C@H]1[C@H](O)CC[C@]21CO1,5.1 µM,13 µM,Non-Toxic,> 50%
C[C@@H]1C[C@H](O)[C@@]2(COC(=O)c3ccc(N(C)C)cc3)C(=O)CCC[C@@H]2[C@@]1(C)CCC1=CC(=O)OC1,0.31 µM,–,Non-Toxic,–
C[C@@H]1C[C@H](O)[C@@]2(CO)C(=O)CCC[C@@H]2[C@@]1(C)CCC1=CC(=O)OC1,> 10 µM,> 20 µM,Non-Toxic,–
C/C=C(\C)C(=O)OC[C@]12C(=O)CCC[C@@H]1[C@@](C)(CCC1=CC(=O)OC1)[C@H](C)CC2=O,2.71 µM,13.3 µM,Non-Toxic,–
CC(=O)OC[C@@]12[C@@H](OC(C)=O)C[C@@H](C)[C@](C)(C[C@H](OC(C)=O)C3=CC(=O)OC3)[C@H]1CCC[C@]21CO1,2.73 µM,13.2 µM,Non-Toxic,> 50%
C/C=C(\C)C(=O)OC[C@@]12[C@@H](OC(C)=O)C[C@@H](C)[C@](C)(CCC3=CC(=O)OC3)[C@H]1CCC[C@]2(O)COC(C)=O,6.12 µM,> 20 µM,Non-Toxic,–
C/C=C(\C)C(=O)OC[C@@]12C(=O)C[C@@H](C)[C@](C)(CCC3=CC(=O)OC3)[C@H]1CCC[C@]2(O)CCl,–,–,Toxic,–
C/C=C(\C)C(=O)OC[C@]12[C@H]3CCC[C@@]1(O)CO[C@@]2(O)C[C@H](C)[C@@]3(C)CCC1=CC(=O)OC1,1.04 µM,8.18 µM,Non-Toxic,–
C[C@@H]1C[C@H](O)[C@@]2(COC(=O)c3ccc(C(F)(F)F)cc3)C(=O)CCC[C@@H]2[C@@]1(C)CCC1=CC(=O)OC1,–,–,Non-Toxic,–
CC(=O)OC[C@@]12[C@@H](OC(C)=O)C[C@@H](C)[C@](C)(C[C@H](O)C3=CC(=O)OC3)[C@H]1CCC[C@]21CO1 [AJUGALIDE C],–,–,Non-Toxic,–
C/C=C(\C)C(=O)OC[C@@]12[C@H](CCC[C@]13CO3)[C@@](C)(C[C@H](O)C1=CC(=O)OC1)[C@H](C)C[C@@H]2O,3.23 µM,11.5 µM,Non-Toxic,> 50%
C/C=C(\C)C(=O)OC[C@@]12[C@H](CCC[C@]1(O)CCl)[C@@](C)(CCC1=CC(=O)OC1)[C@H](C)C[C@@H]2O,1.77 µM,10.4 µM,Non-Toxic,> 50%
C/C=C(\C)C(=O)OC[C@@]12[C@@H](OC(C)=O)C[C@@H](C)[C@](C)(CCC3=CC(=O)OC3)[C@H]1CCC[C@]2(O)CCl [AJUGACUMBIN A CHLOROHYDRIN],1.11 µM,10.2 µM,Non-Toxic,> 50%
CCC(C)C(=O)O[C@@H]1CC[C@]2(CO2)[C@]2(COC(C)=O)[C@@H](OC(C)=O)C[C@@H](C)[C@](C)(C[C@H](O)C3=CC(=O)OC3)[C@@H]12 (stereo partly specified) [DIHYDROAJUGAMARIN],–,–,Non-Toxic,–
CC(=O)OC[C@@]12[C@@H](OC(C)=O)C[C@@H](C)[C@](C)(CCC3=CC(=O)OC3)[C@H]1CCC[C@]21CO1 [AJUGARIN I],3.71 µM,12 µM,Non-Toxic,> 50%

SMILES,IC50 (BMDM [1]),IC50 [2],Activity (BMDM [3]),inhibition at 10 µM (BMDM [4])
C[C@@H]1C[C@H](O)[C@@]2(COC(=O)/C=C/c3ccc(F)cc3)C(=O)CCC[C@@H]2[C@@]1(C)CCC1=CC(=O)OC1,–,–,Non-Toxic,–
C[C@@H]1C[C@H](O)[C@@]2(COC(=O)/C=C/c3ccc(C(F)(F)F)cc3)C(=O)CCC[C@@H]2[C@@]1(C)CCC1=CC(=O)OC1,–,–,Non-Toxic,–
C[C@@H]1C[C@H](O)[C@@]23COC[C@@H]2CCC[C@@H]3[C@@]1(C)CCC1=CC(=O)OC1,–,–,Non-Toxic,–
COC(=O)[C@@H]1CCC[C@@H]2[C@@](C)(C[C@H](O)C3=CC(=O)OC3)[C@H](C)C[C@H](O)[C@]21C,–,–,Non-Toxic,–
C/C=C(\C)C(=O)OC[C@@]12[C@H](CCC[C@]13CO3)[C@@](C)(CCC1=CC(=O)OC1)[C@H](C)C[C@@H]2O,–,–,Non-Toxic,–
C/C=C(\C)C(=O)O[C@@H]1CC[C@](O)(CCl)[C@]2(COC(C)=O)[C@@H](OC(C)=O)C[C@@H](C)[C@](C)(C[C@H](O)C3=CC(=O)OC3)[C@@H]12 [AJUGAMARIN A1 CHLOROHYDRIN],–,–,Non-Toxic,–
C/C=C(\C)C(=O)OC[C@]12C(=O)CCC[C@@H]1[C@@](C)(CCC1=CC(=O)OC1)[C@H](C)C[C@@H]2OC(C)=O,–,–,Non-Toxic,–
CCC(C)C(=O)O[C@@H]1CC[C@]2(CO2)[C@]2(COC(C)=O)[C@@H](OC(C)=O)C[C@@H](C)[C@](C)(C[C@H](OC(C)=O)C3=CC(=O)OC3)[C@@H]12 (stereo partly specified),–,–,Non-Toxic,–
NCCCC(O)(P(=O)(O)O)P(=O)(O)O [ALENDRONIC ACID],4.22 µM,–,–,> 50%
C/C=C(\C)C(=O)O[C@@H](C[C@@]1(C)[C@H](C)C[C@H](OC(C)=O)[C@]2(COC(C)=O)[C@@H]1CCC[C@]2(O)CCl)C1=CC(=O)OC1,–,–,Non-Toxic,–
C/C=C(\C)C(=O)O[C@@H](C[C@@]1(C)[C@H](C)C[C@H](O)[C@]2(C)[C@@H]1CCC[C@H]2C(=O)OC)C1=CC(=O)OC1,1.42 µM,–,Non-Toxic,> 50%
COC(=O)[C@@H]1CCC[C@@H]2[C@@](C)(C[C@H](OC(=O)C(C)C)C3=CC(=O)OC3)[C@H](C)C[C@H](O)[C@]21C,1.79 µM,12.5 µM,Non-Toxic,> 50%
C/C=C(\C)C(=O)O[C@@H]1CC[C@]2(CO2)[C@]2(COC(C)=O)[C@@H](OC(C)=O)C[C@@H](C)[C@](C)(CC(=O)C3=CC(=O)OC3)[C@@H]12,> 10 µM,> 20 µM,Non-Toxic,–
C/C=C(\C)C(=O)O[C@@H]1CC[C@]2(CO2)[C@]2(COC(C)=O)[C@@H](OC(C)=O)C[C@@H](C)[C@](C)(C[C@H](OC(=O)C(C)CC)C3=CC(=O)OC3)[C@@H]12 (stereo partly specified),–,–,Non-Toxic,–
C/C=C(\C)C(=O)O[C@@H](C[C@@]1(C)[C@H](C)C[C@H](OC(C)=O)[C@]2(COC(C)=O)[C@@H]1[C@H](OC(=O)/C(C)=C/C)CC[C@]21CO1)C1=CC(=O)OC1 [AJUGATAKASIN A],–,–,Non-Toxic,–
C/C=C(\C)C(=O)O[C@@H]1CC[C@](O)(CCl)[C@]2(COC(C)=O)[C@@H](OC(C)=O)C[C@@H](C)[C@](C)(C/C=C(/C=O)CC(=O)OC)[C@@H]12,> 10 µM,> 20 µM,Non-Toxic,–
C/C=C(\C)C(=O)O[C@@H]1CC[C@]2(CO2)[C@]2(COC(C)=O)[C@@H](OC(C)=O)C[C@@H](C)[C@](C)(C[C@H](O)C3=CC(=O)OC3)[C@@H]12 [AJUGAMARIN A1],–,–,Non-Toxic,–
C/C=C(\C)C(=O)O[C@@H](C[C@@]1(C)[C@H](C)C[C@H](OC(C)=O)[C@]2(COC(C)=O)[C@@H]1[C@H](OC(C)=O)CC[C@]21CO1)C1=CC(=O)OC1 [AJUGANIPPONIN A],–,11.6 µM,Non-Toxic,–
C/C=C(\C)C(=O)OC[C@@]12[C@@H](OC(C)=O)C[C@@H](C)[C@](C)(C[C@H](O)C3=CC(=O)OC3)[C@H]1CCC[C@]21CO1,–,–,Non-Toxic,–
O=C(Nc1ccncc1)c1cc([N+](=O)[O-])ccc1Cl,0.067 µM,–,–,–
C[C@@H]1C[C@H](O)[C@@]2(COC(=O)c3ccc(F)cc3)C(=O)CCC[C@@H]2[C@@]1(C)CCC1=CC(=O)OC1,–,–,Non-Toxic,–
C/C=C(\C)C(=O)O[C@@H]1CC[C@]2(CO2)[C@@]2(COC(C)=O)[C@H]1[C@@](C)(C[C@H](OC(C)=O)C1=CC(=O)OC1)[C@H](C)C[C@@H]2O,–,–,Non-Toxic,–
